In ChEMBL document CHEMBL1201862, “PubChem BioAssay data set” (2004):
Activity calls are given as the source filed them.

What was measured:
[1] = biological target: Peroxisome proliferator-activated receptor gamma/Nuclear receptor coactivator 2 (Homo sapiens, UniProt P37231); format: functional;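 further: agonist potency for raising coactivator recruitment to the receptor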
[2] = biological target: Peroxisome proliferator-activated receptor gamma/Nuclear receptor coactivator 1 (Homo sapiens, UniProt P37231); format: functional;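 further: agonist potency as compounds enhance coactivator SRC-1 recruitment to PPARgamma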
[3] = biological target: Peroxisome proliferator-activated receptor gamma/Nuclear receptor coactivator 3 (Homo sapiens, UniProt P37231); format: functional;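 further: agonist potency for raising coactivator recruitment to the receptor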
Estrogen receptor beta [4] = biological target: T1, Estrogen receptor beta (Homo sapiens, UniProt Q92731);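 further: recombinant ER-beta bound to coactivator SRC1 peptide in presence of estradiol agonist; inhibitors block coactivator peptide binding and lower the FRET signal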
Estrogen receptor beta [5] = biological target: T1, Estrogen receptor beta; experiment: blockers of SRC-3 recruitment to ERβ – biochemical, ELISA, streptavidin-HRP readout, orthogonal assay, confirmation (AID 1060)
[6] = biological target: T2, Sentrin-specific protease 8 (Homo sapiens, UniProt Q96LD8); experiment: inhibition of human SENP8 cleavage activity – biochemical, luminescence, SAR follow-up (AID 504501); format: functional
T2 sequence (Q96LD8 whole entry): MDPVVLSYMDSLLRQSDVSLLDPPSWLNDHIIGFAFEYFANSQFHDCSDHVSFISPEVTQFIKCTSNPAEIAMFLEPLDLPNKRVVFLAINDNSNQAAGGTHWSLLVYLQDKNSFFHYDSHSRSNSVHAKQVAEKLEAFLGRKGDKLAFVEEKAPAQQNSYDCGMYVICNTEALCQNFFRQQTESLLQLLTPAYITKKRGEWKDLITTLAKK

Caspase-3 = biological target: T3, Caspase-3 (Homo sapiens, UniProt P42574); experiment: SAR Analysis of small molecule inhibitors of Sentrin-specific proteases (SENPs) using a Caspase-3 Selectivity assay. [Related pubchem assays (depositor defined):AID2540, AID2599, AID434973, AID489001]; format: functional
T3 sequence (P42574 whole entry): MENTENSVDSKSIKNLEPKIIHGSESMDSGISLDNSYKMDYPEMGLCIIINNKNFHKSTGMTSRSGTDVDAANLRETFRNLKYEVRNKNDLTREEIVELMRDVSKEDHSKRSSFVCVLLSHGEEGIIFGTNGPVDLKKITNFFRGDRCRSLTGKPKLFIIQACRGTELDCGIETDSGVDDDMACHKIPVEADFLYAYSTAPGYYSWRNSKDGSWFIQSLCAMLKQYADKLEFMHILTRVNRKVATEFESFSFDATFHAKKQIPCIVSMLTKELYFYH

[7] = biological target: T4, Sentrin-specific protease 6 (Homo sapiens, UniProt Q9GZR1); experiment: SAR Analysis of small molecule inhibitors of Sentrin-specific protease 6 (SENP6) using a Luminescent assay. [Related pubchem assays (depositor defined):AID2582, AID2599]; format: functional
T4 sequence (Q9GZR1 whole entry): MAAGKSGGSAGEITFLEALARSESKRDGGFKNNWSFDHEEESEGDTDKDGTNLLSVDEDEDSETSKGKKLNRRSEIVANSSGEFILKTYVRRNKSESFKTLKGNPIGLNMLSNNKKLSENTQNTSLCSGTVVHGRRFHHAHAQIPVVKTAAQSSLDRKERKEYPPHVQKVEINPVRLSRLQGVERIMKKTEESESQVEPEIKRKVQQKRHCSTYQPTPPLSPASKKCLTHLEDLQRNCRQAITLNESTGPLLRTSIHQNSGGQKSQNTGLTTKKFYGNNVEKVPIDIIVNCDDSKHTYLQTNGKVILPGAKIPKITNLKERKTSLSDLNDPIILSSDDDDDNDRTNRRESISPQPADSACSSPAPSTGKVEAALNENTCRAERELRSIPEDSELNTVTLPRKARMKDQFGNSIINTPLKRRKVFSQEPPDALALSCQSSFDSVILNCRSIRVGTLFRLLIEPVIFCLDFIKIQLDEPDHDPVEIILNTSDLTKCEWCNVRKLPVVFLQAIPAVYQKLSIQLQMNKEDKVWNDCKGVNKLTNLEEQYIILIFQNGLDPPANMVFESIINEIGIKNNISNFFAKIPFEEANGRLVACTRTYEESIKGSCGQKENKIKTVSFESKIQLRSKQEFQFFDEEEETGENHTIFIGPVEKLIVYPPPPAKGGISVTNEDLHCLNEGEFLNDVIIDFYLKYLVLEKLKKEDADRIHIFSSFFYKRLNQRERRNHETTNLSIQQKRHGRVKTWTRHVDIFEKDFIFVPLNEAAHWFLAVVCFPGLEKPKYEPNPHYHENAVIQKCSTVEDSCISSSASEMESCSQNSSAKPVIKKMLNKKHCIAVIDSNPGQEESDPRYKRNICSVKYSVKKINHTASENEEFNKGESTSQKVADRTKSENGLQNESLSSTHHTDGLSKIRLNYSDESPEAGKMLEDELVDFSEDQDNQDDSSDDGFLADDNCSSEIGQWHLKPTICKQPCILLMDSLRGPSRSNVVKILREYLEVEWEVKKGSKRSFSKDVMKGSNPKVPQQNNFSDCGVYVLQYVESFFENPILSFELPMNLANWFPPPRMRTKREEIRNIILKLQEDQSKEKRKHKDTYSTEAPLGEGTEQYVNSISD

[8] = biological target: T5, Sentrin-specific protease 7 (Homo sapiens, UniProt Q9BQF6); experiment: inhibition of human SENP7 cleavage activity – biochemical, luminescence, SAR follow-up (AID 504497); format: functional
T5 sequence (Q9BQF6 whole entry): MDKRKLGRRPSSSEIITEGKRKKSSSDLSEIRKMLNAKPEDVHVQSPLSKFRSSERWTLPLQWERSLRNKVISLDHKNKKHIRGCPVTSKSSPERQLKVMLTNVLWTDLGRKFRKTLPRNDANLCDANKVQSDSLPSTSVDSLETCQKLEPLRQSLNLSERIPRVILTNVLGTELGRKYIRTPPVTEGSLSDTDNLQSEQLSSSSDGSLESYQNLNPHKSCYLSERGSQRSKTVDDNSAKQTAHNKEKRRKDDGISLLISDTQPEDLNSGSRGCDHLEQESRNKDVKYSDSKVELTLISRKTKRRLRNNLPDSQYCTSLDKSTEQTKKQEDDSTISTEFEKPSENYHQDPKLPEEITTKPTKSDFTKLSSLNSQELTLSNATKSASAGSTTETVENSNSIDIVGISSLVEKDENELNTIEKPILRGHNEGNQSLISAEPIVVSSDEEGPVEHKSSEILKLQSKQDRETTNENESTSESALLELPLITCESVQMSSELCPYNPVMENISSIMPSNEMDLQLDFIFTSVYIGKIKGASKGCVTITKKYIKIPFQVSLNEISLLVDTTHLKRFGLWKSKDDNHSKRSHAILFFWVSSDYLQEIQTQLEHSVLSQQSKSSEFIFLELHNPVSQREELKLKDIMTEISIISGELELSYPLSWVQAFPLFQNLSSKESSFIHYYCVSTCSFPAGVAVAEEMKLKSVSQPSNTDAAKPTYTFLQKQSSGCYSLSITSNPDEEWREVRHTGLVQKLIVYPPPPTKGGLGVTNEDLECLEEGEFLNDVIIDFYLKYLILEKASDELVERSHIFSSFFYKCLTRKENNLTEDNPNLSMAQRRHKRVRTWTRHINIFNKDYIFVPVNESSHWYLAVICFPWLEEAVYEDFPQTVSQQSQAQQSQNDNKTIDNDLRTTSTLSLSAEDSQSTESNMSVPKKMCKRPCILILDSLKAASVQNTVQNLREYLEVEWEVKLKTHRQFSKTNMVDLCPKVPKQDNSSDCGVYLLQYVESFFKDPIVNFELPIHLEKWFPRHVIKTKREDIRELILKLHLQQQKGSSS

[9] = A Cell Based Secondary Assay To Explore Cytotoxicity of Compounds that Sensitize Mycobacterium Tuberculosis to Beta-Lactam Antibiotics.; format: functional
[10] = biological target: T6, Polyadenylate-binding protein 1 (Homo sapiens, UniProt P11940); experiment: MLLE binding blockers, Cy5 peptide tracer – biochemical, fluorescence polarization, Cy5-PAM2 peptide, secondary, miRNA deadenylation inhibitor project, dose response (AID 602260); format: functional; conditions: read-out: IC50_Mean
[11] = biological target: T6, Polyadenylate-binding protein 1; experiment: MLLE domain peptide-binding blockers, IC50 – biochemical, fluorescence polarization, FITC-PAM2 peptide, dose response (AID 602259); format: functional; conditions: read-out: IC50_Mean
[12] = biological target: T7, Mannose-6-phosphate isomerase (Homo sapiens, UniProt P34949); experiment: MPI enzyme activity inhibition – biochemical, fluorescence intensity, coupled assay, primary screen (AID 1209)
T7 sequence (P34949 whole entry): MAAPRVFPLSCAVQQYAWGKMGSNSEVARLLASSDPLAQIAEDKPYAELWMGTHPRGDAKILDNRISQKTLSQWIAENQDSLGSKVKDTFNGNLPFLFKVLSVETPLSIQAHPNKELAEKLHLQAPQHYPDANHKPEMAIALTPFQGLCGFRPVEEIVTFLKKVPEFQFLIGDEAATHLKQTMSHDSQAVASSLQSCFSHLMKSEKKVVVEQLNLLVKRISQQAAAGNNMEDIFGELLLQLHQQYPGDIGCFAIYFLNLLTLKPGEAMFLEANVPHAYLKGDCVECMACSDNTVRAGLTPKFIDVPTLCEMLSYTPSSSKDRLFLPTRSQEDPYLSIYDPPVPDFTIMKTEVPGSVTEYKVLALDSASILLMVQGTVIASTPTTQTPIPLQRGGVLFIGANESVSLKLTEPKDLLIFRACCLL

[13] = biological target: T8, Replicative DNA helicase DnaB (Mycobacterium tuberculosis, UniProt P9WMR3); experiment: DnaB intein splicing inhibitors, dose response, biochemical, cell-free fluorescence (AID 449749); format: functional
T8 sequence (P9WMR3 whole entry): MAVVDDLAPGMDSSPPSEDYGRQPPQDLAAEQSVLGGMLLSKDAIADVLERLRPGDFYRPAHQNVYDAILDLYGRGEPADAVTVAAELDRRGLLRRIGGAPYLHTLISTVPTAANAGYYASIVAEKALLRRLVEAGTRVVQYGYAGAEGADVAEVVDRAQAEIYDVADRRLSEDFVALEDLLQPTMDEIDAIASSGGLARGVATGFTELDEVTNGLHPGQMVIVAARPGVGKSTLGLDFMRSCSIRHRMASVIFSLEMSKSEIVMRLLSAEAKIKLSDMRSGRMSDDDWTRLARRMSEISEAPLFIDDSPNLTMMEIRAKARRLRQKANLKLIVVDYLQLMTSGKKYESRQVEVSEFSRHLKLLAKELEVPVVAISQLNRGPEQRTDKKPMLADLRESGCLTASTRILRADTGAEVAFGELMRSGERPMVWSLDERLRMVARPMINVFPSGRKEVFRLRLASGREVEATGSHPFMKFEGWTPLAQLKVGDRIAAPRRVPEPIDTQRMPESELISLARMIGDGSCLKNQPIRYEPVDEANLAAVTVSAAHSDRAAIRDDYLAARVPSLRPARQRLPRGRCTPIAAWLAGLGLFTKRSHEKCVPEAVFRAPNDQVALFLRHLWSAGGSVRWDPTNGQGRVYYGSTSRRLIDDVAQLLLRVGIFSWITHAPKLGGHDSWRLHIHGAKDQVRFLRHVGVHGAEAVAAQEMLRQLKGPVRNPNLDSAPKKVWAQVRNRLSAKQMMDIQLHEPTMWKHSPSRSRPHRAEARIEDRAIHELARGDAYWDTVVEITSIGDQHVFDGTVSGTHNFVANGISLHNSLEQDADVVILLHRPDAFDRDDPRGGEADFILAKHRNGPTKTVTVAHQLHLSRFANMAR

Protein RecA = biological target: T9, Protein RecA (Mycobacterium tuberculosis, UniProt P9WHJ3); experiment: Fluorescence Cell-Free Homogeneous Dose Retest to Identify Inhibitors of RecA-Intein Splicing Activity. [Related pubchem assays (depositor defined):AID2097, AID2223, AID489010, AID492950]; format: functional
T9 sequence (P9WHJ3 whole entry): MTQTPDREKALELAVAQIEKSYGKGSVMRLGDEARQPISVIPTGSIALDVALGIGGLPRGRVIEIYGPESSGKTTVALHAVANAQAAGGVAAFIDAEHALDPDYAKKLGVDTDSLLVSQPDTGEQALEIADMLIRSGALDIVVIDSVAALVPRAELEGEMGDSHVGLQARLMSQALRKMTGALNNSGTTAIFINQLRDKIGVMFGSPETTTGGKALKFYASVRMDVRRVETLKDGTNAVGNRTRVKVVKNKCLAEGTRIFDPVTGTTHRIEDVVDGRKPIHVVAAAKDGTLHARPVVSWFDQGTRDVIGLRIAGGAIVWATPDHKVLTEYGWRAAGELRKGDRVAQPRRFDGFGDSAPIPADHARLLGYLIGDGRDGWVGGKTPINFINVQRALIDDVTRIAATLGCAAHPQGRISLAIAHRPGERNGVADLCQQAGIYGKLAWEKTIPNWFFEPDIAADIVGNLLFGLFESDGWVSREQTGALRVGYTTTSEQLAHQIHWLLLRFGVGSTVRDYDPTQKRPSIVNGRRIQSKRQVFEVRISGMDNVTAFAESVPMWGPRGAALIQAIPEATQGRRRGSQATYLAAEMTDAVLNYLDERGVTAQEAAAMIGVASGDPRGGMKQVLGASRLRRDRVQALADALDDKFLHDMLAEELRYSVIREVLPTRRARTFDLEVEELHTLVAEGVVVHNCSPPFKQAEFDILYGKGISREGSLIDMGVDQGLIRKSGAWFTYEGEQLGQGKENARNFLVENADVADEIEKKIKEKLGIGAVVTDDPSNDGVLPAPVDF

Genome polyprotein = Genome polyprotein (dengue virus type 2, UniProt P29990); experiment: flavivirus cap methylation enzyme inhibition – biochemical, confirmation dose response, primary screen (AID 588689); format: functional

T6 sequence (P11940 whole entry, the tested form may be a part): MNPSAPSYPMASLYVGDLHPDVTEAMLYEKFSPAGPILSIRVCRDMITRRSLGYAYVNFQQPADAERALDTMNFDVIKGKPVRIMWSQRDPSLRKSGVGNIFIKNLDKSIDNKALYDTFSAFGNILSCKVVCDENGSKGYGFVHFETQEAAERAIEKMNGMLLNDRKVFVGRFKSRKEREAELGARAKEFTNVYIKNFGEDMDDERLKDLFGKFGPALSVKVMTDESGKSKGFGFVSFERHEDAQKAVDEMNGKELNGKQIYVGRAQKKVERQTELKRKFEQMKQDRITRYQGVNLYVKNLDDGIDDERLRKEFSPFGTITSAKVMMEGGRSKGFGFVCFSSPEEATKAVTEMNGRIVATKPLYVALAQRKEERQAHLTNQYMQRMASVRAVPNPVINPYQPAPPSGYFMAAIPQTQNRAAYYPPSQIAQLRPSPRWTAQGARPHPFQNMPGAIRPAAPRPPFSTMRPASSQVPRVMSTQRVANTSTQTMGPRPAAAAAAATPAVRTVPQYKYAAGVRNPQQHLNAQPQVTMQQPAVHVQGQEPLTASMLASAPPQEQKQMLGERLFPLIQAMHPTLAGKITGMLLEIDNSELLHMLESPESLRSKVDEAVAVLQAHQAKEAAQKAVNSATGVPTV
T1 sequence (Q92731 whole entry): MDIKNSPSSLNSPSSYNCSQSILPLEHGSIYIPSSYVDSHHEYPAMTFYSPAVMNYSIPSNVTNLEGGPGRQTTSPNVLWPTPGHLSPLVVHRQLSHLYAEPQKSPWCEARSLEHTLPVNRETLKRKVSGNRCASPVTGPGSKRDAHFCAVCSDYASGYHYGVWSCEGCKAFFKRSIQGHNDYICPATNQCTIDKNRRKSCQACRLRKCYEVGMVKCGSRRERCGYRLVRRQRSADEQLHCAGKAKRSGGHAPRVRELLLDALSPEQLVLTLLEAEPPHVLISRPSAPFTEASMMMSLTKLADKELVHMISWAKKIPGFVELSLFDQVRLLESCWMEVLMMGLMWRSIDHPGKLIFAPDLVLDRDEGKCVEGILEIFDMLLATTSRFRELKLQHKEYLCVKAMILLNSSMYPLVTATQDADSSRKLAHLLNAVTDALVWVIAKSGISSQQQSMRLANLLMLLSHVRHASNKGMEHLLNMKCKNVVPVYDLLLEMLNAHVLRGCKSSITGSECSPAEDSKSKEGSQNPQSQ
Peroxisome proliferator-activated receptor gamma/Nuclear receptor coactivator 2, sequence (P37231 whole entry): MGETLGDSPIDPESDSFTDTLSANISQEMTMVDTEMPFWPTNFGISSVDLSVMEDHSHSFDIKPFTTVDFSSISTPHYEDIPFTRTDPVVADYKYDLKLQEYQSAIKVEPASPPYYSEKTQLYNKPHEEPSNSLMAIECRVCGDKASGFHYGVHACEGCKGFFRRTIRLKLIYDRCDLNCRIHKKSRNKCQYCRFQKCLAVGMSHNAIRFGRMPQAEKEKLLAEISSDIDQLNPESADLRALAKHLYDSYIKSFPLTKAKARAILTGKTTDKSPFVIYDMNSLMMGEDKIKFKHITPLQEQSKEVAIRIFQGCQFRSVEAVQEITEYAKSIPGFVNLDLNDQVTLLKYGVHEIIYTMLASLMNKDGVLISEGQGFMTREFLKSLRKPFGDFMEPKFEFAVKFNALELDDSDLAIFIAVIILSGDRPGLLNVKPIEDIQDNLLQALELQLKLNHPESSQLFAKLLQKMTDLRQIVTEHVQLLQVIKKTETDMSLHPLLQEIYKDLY
Peroxisome proliferator-activated receptor gamma/Nuclear receptor coactivator 2, sequence (Q15596 whole entry, further chain): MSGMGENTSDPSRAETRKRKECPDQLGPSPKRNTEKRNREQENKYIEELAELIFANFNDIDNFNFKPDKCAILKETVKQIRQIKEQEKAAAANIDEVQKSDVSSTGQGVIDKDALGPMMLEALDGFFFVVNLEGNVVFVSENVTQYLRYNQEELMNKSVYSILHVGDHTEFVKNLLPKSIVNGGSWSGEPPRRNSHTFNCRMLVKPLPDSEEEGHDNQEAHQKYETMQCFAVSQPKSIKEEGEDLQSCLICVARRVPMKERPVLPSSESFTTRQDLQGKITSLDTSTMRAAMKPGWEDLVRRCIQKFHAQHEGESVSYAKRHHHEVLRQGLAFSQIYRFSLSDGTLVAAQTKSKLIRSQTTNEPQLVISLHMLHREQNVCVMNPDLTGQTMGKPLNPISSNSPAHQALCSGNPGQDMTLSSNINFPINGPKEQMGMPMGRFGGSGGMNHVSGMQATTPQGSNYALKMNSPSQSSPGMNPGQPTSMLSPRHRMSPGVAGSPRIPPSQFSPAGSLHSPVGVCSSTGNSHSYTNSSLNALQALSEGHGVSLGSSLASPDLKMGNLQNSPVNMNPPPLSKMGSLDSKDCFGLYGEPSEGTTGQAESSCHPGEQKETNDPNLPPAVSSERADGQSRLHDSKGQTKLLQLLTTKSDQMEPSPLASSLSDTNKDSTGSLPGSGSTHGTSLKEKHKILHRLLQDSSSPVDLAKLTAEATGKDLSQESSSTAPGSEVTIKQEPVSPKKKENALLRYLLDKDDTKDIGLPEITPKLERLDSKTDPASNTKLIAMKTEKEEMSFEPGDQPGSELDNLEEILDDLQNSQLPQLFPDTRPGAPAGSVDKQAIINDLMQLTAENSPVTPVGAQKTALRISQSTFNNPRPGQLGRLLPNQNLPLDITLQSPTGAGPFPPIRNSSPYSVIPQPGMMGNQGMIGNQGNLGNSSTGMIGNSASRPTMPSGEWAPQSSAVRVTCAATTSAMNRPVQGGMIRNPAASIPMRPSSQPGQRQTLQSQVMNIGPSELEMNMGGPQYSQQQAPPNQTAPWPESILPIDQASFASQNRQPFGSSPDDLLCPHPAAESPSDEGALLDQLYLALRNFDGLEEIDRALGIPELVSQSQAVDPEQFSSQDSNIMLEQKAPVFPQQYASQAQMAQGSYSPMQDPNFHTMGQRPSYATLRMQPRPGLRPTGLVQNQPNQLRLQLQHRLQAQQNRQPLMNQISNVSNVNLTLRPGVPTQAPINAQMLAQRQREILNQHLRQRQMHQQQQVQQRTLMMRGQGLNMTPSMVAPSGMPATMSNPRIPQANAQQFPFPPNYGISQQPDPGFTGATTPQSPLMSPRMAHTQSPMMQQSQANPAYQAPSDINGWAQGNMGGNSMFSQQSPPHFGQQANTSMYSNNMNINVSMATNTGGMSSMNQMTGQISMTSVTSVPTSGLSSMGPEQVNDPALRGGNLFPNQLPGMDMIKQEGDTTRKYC
Peroxisome proliferator-activated receptor gamma/Nuclear receptor coactivator 1, sequence (P37231 whole entry): as the sequence (P37231 whole entry) above
Peroxisome proliferator-activated receptor gamma/Nuclear receptor coactivator 1, sequence (Q15788 whole entry, further chain): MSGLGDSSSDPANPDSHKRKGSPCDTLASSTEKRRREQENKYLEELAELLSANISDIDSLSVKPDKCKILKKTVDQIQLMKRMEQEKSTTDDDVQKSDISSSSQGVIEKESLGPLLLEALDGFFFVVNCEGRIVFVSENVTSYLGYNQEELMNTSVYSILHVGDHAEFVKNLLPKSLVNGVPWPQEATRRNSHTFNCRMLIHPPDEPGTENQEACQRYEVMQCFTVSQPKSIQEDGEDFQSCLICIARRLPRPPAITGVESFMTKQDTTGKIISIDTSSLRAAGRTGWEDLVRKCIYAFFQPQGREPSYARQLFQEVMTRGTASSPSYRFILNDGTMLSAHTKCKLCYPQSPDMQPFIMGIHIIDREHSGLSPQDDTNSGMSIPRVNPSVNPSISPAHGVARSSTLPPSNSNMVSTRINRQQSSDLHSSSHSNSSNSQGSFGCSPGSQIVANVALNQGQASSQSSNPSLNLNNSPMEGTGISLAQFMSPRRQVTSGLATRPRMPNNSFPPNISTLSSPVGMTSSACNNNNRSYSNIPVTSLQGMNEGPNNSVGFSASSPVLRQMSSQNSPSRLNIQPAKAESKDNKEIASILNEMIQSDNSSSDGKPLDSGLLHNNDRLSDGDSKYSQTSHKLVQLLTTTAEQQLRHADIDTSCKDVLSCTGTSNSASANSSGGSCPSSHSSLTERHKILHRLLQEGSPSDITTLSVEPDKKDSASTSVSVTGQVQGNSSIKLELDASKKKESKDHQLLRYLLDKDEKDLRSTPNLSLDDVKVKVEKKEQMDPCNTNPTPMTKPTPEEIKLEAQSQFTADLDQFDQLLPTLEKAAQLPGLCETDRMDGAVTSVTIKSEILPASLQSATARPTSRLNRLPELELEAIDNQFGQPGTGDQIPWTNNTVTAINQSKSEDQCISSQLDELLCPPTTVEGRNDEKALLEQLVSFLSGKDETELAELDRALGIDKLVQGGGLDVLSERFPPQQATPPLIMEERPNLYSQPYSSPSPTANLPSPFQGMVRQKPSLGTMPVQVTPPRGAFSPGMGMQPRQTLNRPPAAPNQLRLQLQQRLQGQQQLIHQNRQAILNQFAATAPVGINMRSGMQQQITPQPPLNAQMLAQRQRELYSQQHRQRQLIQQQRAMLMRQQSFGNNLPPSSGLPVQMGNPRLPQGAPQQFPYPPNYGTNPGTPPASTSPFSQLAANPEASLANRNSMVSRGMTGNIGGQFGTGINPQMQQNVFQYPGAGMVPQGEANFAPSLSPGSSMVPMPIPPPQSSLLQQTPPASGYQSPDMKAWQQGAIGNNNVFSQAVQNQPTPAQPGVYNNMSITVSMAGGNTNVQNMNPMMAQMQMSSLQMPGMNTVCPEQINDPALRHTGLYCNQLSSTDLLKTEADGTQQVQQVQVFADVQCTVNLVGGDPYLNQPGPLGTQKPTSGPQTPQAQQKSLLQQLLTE

COc1cc2c(cc1OC)C(Nc1ccc(S(N)(=O)=O)cc1)=NC(C)(C)C2
EC50 [1]: > 79.4 µM (not active)
EC50 [2]: > 79.4 µM (not active)
EC50 [3]: > 79.4 µM (not active)

O=S(=O)(Nc1cccc(C(F)(F)F)c1)c1cnc[nH]1
EC50 [1]: > 79.4 µM (not active)
EC50 [2]: > 79.4 µM (not active)
EC50 [3]: > 79.4 µM (not active)

Cc1cc(C(=O)Nc2sc3c(c2C#N)CCC3)no1
IC50 (Estrogen receptor beta [4]): 11.5 µM (active)
IC50 (Estrogen receptor beta [5]): < 0.023 µM (not active)
IC50 [6]: > 99 µM (inactive)
IC50 (Caspase-3): 30.4 µM (active)
IC50 [7]: > 99 µM (inactive)
IC50 [8]: 52.7 µM (active)

COc1cc(-c2nc(S(=O)(=O)c3ccc(C)cc3)c(N3CCOCC3)o2)cc(OC)c1OC
CC50 [9]: > 40 µM (active)
IC50 [10]: > 66 µM (inactive)
IC50 [11]: > 66 µM (inactive)

CC1CC1C(=O)Nc1nc(-c2cccs2)c(-c2cccs2)s1 (stereo unspecified)
CC50 [9]: > 40 µM (active)

Cc1ccc(-n2nnnc2Sc2nc([N+](=O)[O-])nn2C)cc1
CC50 [9]: 16.5 µM (active)

O=C(O)CC1SC(N/N=C/c2ccc(-c3ccc(Cl)cc3[N+](=O)[O-])o2)=NC1=O (stereo unspecified)
IC50 [12]: > 50 µM (not active)
AC50 [13]: > 380 µM (inactive)
EC50 (Protein RecA): 4.61 µM (active)
IC50 (Genome polyprotein): 34.8 µM (active)
